Numbers after ± are expanded uncertainties.
Conditions: Liquid, Buoyancy - hydrostatic balance with magnetic suspension - one sinker

Cc1ccc(Cl)cc1Cl [1,3-dichloro-4-methylbenzene]
Conditions	mass density [kg/m3]
263.15 K, 97.86 kPa	1280.75 ± 1.5
263.15 K, 1123.9 kPa	1281.41 ± 1.5
263.15 K, 2150.1 kPa	1282.08 ± 1.5
263.15 K, 3971.8 kPa	1283.26 ± 1.5
263.15 K, 6167.5 kPa	1284.65 ± 1.5
263.15 K, 7898.5 kPa	1285.75 ± 1.5
263.15 K, 9974.7 kPa	1287.06 ± 1.5
273.15 K, 101.87 kPa	1270.26 ± 1.5
273.15 K, 1168.7 kPa	1270.98 ± 1.5
273.15 K, 2038.5 kPa	1271.57 ± 1.5
273.15 K, 4184.1 kPa	1273.02 ± 1.5
273.15 K, 5901.9 kPa	1274.17 ± 1.5
273.15 K, 7917 kPa	1275.5 ± 1.5
273.15 K, 10080 kPa	1276.92 ± 1.5
273.15 K, 11859 kPa	1278.07 ± 1.5
273.15 K, 14024 kPa	1279.46 ± 1.5
273.15 K, 16108 kPa	1280.79 ± 1.5
273.15 K, 17842 kPa	1281.88 ± 1.5
273.15 K, 20076 kPa	1283.28 ± 1.5
273.15 K, 22132 kPa	1284.55 ± 1.5
273.15 K, 24150 kPa	1285.79 ± 1.5
273.15 K, 26076 kPa	1286.95 ± 1.5
273.15 K, 27913 kPa	1288.06 ± 1.5
273.15 K, 29994 kPa	1289.3 ± 1.5
293.15 K, 97.54 kPa	1249.31 ± 1.4
293.16 K, 1126.7 kPa	1250.08 ± 1.4
293.17 K, 1886.8 kPa	1250.65 ± 1.4
293.18 K, 4191.9 kPa	1252.36 ± 1.4
293.19 K, 6062.4 kPa	1253.73 ± 1.4
293.2 K, 7970.1 kPa	1255.11 ± 1.4
293.21 K, 10165 kPa	1256.68 ± 1.4
293.22 K, 12144 kPa	1258.09 ± 1.4
293.23 K, 14101 kPa	1259.46 ± 1.4
293.24 K, 16101 kPa	1260.85 ± 1.4
293.25 K, 18110 kPa	1262.23 ± 1.4
293.26 K, 20077 kPa	1263.55 ± 1.4
293.27 K, 22136 kPa	1264.94 ± 1.4
293.28 K, 24103 kPa	1266.25 ± 1.4
293.29 K, 25962 kPa	1267.48 ± 1.4
293.3 K, 27896 kPa	1268.74 ± 1.4
293.31 K, 29829 kPa	1270 ± 1.5
313.15 K, 107.85 kPa	1228.39 ± 1.4
313.15 K, 1095.7 kPa	1229.21 ± 1.4
313.15 K, 2082.7 kPa	1230.02 ± 1.4
313.15 K, 4107.2 kPa	1231.67 ± 1.4
313.15 K, 5854.6 kPa	1233.08 ± 1.4
313.15 K, 8123.1 kPa	1234.89 ± 1.4
313.15 K, 10162 kPa	1236.49 ± 1.4
313.15 K, 12124 kPa	1238.01 ± 1.4
313.15 K, 13892 kPa	1239.36 ± 1.4
313.15 K, 16106 kPa	1241.04 ± 1.4
313.15 K, 18086 kPa	1242.52 ± 1.4
313.15 K, 20144 kPa	1244.04 ± 1.4
313.15 K, 22020 kPa	1245.42 ± 1.4
313.15 K, 24014 kPa	1246.86 ± 1.4
313.15 K, 25938 kPa	1248.23 ± 1.4
313.15 K, 27776 kPa	1249.54 ± 1.4
313.15 K, 29828 kPa	1250.98 ± 1.4
333.15 K, 101.71 kPa	1207.38 ± 1.3
333.15 K, 1081.7 kPa	1208.28 ± 1.3
333.15 K, 1877.8 kPa	1209 ± 1.3
333.15 K, 3933.1 kPa	1210.85 ± 1.3
333.15 K, 5993.1 kPa	1212.68 ± 1.3
333.15 K, 8164.3 kPa	1214.58 ± 1.3
333.15 K, 10140 kPa	1216.29 ± 1.3
333.15 K, 12129 kPa	1217.98 ± 1.3
333.15 K, 14157 kPa	1219.68 ± 1.3
333.15 K, 16129 kPa	1221.31 ± 1.3
333.15 K, 18148 kPa	1222.96 ± 1.4
333.15 K, 20046 kPa	1224.49 ± 1.4
333.15 K, 22094 kPa	1226.12 ± 1.4
333.15 K, 24026 kPa	1227.64 ± 1.4
333.15 K, 25826 kPa	1229.04 ± 1.4
333.15 K, 27856 kPa	1230.61 ± 1.4
333.15 K, 29702 kPa	1232.01 ± 1.4
353.15 K, 101.05 kPa	1186.2 ± 1.3
353.15 K, 1224 kPa	1187.34 ± 1.3
353.15 K, 2054.2 kPa	1188.18 ± 1.3
353.15 K, 4178 kPa	1190.3 ± 1.3
353.15 K, 6020.6 kPa	1192.11 ± 1.3
353.15 K, 8131.5 kPa	1194.14 ± 1.3
353.15 K, 10113 kPa	1196.02 ± 1.3
353.15 K, 12081 kPa	1197.87 ± 1.3
353.15 K, 14118 kPa	1199.74 ± 1.3
353.15 K, 16085 kPa	1201.53 ± 1.3
353.15 K, 18058 kPa	1203.29 ± 1.3
353.15 K, 19980 kPa	1204.98 ± 1.3
353.15 K, 22046 kPa	1206.78 ± 1.3
353.15 K, 24056 kPa	1208.5 ± 1.3
353.15 K, 26025 kPa	1210.17 ± 1.3
353.15 K, 27872 kPa	1211.71 ± 1.3
353.15 K, 29804 kPa	1213.32 ± 1.3
373.15 K, 99.43 kPa	1164.78 ± 1.2
373.15 K, 1084.4 kPa	1165.89 ± 1.2
373.15 K, 1956.5 kPa	1166.87 ± 1.2
373.15 K, 4135.4 kPa	1169.29 ± 1.2
373.15 K, 5954.6 kPa	1171.27 ± 1.2
373.15 K, 7981.3 kPa	1173.43 ± 1.2
373.15 K, 10128 kPa	1175.67 ± 1.3
373.15 K, 11936 kPa	1177.54 ± 1.3
373.15 K, 14002 kPa	1179.62 ± 1.3
373.15 K, 15987 kPa	1181.6 ± 1.3
373.15 K, 18116 kPa	1183.68 ± 1.3
373.15 K, 19990 kPa	1185.5 ± 1.3
373.15 K, 22002 kPa	1187.4 ± 1.3
373.15 K, 23973 kPa	1189.24 ± 1.3
373.15 K, 26011 kPa	1191.11 ± 1.3
373.15 K, 28050 kPa	1192.96 ± 1.3
373.15 K, 29922 kPa	1194.64 ± 1.3
393.15 K, 100.49 kPa	1143.03 ± 1.2
393.15 K, 1179.5 kPa	1144.4 ± 1.2
393.15 K, 1991.5 kPa	1145.42 ± 1.2
393.15 K, 3926.6 kPa	1147.8 ± 1.2
393.15 K, 5963.8 kPa	1150.27 ± 1.2
393.15 K, 7963.7 kPa	1152.64 ± 1.2
393.15 K, 10152 kPa	1155.17 ± 1.2
393.15 K, 12148 kPa	1157.43 ± 1.2
393.15 K, 14137 kPa	1159.65 ± 1.2
393.15 K, 16116 kPa	1161.81 ± 1.2
393.15 K, 17917 kPa	1163.75 ± 1.2
393.15 K, 20141 kPa	1166.09 ± 1.2
393.15 K, 22096 kPa	1168.12 ± 1.2
393.15 K, 24174 kPa	1170.23 ± 1.2
393.15 K, 26160 kPa	1172.22 ± 1.2
393.15 K, 27968 kPa	1174 ± 1.2
393.15 K, 29927 kPa	1175.92 ± 1.3
413.15 K, 100.59 kPa	1120.92 ± 1.1
413.15 K, 1151.6 kPa	1122.41 ± 1.1
413.15 K, 2145.3 kPa	1123.81 ± 1.2
413.15 K, 3981.3 kPa	1126.35 ± 1.2
413.15 K, 6146.6 kPa	1129.27 ± 1.2
413.15 K, 8164.1 kPa	1131.92 ± 1.2
413.15 K, 10060 kPa	1134.35 ± 1.2
413.15 K, 11927 kPa	1136.7 ± 1.2
413.15 K, 14145 kPa	1139.43 ± 1.2
413.15 K, 16150 kPa	1141.84 ± 1.2
413.15 K, 18124 kPa	1144.17 ± 1.2
413.15 K, 20124 kPa	1146.49 ± 1.2
413.15 K, 22139 kPa	1148.77 ± 1.2
413.15 K, 24073 kPa	1150.92 ± 1.2
413.15 K, 26091 kPa	1153.13 ± 1.2
413.15 K, 29979 kPa	1157.28 ± 1.2
433.15 K, 95.11 kPa	1098.16 ± 1.1
433.15 K, 1136.7 kPa	1099.85 ± 1.1
433.15 K, 2147.7 kPa	1101.45 ± 1.1
433.15 K, 3917.8 kPa	1104.21 ± 1.1
433.15 K, 6150.5 kPa	1107.59 ± 1.1
433.15 K, 8148.5 kPa	1110.53 ± 1.1
433.15 K, 10046 kPa	1113.26 ± 1.1
433.15 K, 12142 kPa	1116.17 ± 1.1
433.15 K, 14151 kPa	1118.91 ± 1.1
433.15 K, 16187 kPa	1121.62 ± 1.1
433.15 K, 18165 kPa	1124.19 ± 1.2
433.15 K, 20168 kPa	1126.73 ± 1.2
433.15 K, 22138 kPa	1129.18 ± 1.2
433.15 K, 24093 kPa	1131.56 ± 1.2
433.15 K, 26057 kPa	1133.91 ± 1.2
433.15 K, 28003 kPa	1136.2 ± 1.2
433.15 K, 29939 kPa	1138.43 ± 1.2
453.15 K, 1198.5 kPa	1076.81 ± 1.1
453.15 K, 2151.7 kPa	1078.53 ± 1.1
453.15 K, 4164.4 kPa	1082.08 ± 1.1
453.15 K, 6169.6 kPa	1085.47 ± 1.1
453.15 K, 8024.4 kPa	1088.53 ± 1.1
453.15 K, 10086 kPa	1091.85 ± 1.1
453.15 K, 12119 kPa	1094.99 ± 1.1
453.15 K, 14144 kPa	1098.05 ± 1.1
453.15 K, 16087 kPa	1100.89 ± 1.1
453.15 K, 19984 kPa	1106.47 ± 1.1
453.15 K, 22044 kPa	1109.28 ± 1.1
453.15 K, 24087 kPa	1112.01 ± 1.1
453.15 K, 26125 kPa	1114.68 ± 1.1
453.15 K, 28000 kPa	1117.08 ± 1.1
453.15 K, 29897 kPa	1119.49 ± 1.1
473.15 K, 1132.5 kPa	1052.66 ± 1
473.15 K, 2054.3 kPa	1054.57 ± 1
473.15 K, 4181.9 kPa	1058.81 ± 1
473.15 K, 5970.9 kPa	1062.27 ± 1
473.15 K, 8153.5 kPa	1066.34 ± 1
473.15 K, 10138 kPa	1069.91 ± 1.1
473.15 K, 12109 kPa	1073.33 ± 1.1
473.15 K, 14125 kPa	1073.33 ± 10
473.15 K, 16133 kPa	1080.01 ± 1.1
473.15 K, 18132 kPa	1083.19 ± 1.1
473.15 K, 20147 kPa	1086.3 ± 1.1
473.15 K, 22083 kPa	1089.22 ± 1.1
473.15 K, 24078 kPa	1092.15 ± 1.1
473.15 K, 26043 kPa	1094.96 ± 1.1
473.15 K, 27886 kPa	1097.55 ± 1.1
473.15 K, 29893 kPa	1100.31 ± 1.1
